We go through one molecule from ChEMBL document CHEMBL4602719, “Discovery of Potent, Selective, and Orally Bioavailable Inhibitors of USP7 with In Vivo Antitumor Activity” (J Med Chem, 2020).

Where only a bound is given, the exact number is not on record here.

Series [1] deals with T1, Ubiquitin carboxyl-terminal hydrolase 47 (Homo sapiens, UniProt Q96K76).
T1 sequence (Q96K76 whole entry): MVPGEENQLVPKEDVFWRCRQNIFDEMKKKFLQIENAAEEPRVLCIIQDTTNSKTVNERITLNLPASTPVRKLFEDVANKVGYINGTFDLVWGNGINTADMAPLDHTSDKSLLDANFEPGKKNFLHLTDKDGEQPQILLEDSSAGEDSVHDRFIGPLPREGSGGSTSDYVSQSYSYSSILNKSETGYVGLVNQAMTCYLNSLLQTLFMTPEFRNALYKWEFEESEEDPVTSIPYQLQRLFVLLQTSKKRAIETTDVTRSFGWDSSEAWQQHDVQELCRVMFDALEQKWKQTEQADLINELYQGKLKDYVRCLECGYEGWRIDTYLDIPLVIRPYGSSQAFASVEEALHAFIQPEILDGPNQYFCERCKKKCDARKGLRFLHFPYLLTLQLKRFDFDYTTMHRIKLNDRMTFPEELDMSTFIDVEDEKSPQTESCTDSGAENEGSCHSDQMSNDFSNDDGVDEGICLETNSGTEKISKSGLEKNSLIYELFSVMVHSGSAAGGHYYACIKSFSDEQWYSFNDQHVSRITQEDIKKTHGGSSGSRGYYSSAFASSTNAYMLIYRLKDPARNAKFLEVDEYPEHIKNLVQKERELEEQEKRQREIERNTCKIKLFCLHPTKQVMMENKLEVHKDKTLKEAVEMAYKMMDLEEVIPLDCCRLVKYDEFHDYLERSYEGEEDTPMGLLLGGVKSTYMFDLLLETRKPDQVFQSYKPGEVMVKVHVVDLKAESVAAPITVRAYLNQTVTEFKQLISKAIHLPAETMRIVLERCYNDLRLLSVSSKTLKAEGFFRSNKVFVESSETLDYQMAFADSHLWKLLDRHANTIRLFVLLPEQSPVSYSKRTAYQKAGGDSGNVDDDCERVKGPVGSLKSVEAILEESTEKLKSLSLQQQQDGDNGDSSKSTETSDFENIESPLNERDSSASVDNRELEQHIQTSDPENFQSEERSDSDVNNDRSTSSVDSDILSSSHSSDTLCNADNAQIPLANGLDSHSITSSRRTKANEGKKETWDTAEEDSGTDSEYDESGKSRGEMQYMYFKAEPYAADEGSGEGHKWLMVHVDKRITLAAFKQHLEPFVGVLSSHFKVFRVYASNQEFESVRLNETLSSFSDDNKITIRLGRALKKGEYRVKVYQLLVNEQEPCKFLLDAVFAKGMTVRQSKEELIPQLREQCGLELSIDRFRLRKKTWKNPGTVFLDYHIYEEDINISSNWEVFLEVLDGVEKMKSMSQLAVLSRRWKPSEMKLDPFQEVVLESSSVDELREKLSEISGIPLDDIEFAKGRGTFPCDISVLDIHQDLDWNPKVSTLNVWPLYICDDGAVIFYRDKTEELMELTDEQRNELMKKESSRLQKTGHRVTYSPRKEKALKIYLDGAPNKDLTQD
The series is described as follows: Inhibition of USP47 (unknown origin) by biochemical assay.

A short description of series [2]: Clearance in Sprague-Dawley rat at 0.5 mg/kg, iv. It counts as ADME, organism-based. The conditions noted are these: in vivo.
The target of series [3] is Ubiquitin carboxyl-terminal hydrolase 27 (Homo sapiens, UniProt A6NNY8). The series is described as follows: Inhibition of human DAC-tagged USP27X expressed in Escherichia coli assessed as cleavage of […]-linked di-ubiquitin to mono-ubiquitin using di-ubiquitin as substrate by mass spectrometry.
Ubiquitin carboxyl-terminal hydrolase 27, sequence (A6NNY8 whole entry, canonical isoform): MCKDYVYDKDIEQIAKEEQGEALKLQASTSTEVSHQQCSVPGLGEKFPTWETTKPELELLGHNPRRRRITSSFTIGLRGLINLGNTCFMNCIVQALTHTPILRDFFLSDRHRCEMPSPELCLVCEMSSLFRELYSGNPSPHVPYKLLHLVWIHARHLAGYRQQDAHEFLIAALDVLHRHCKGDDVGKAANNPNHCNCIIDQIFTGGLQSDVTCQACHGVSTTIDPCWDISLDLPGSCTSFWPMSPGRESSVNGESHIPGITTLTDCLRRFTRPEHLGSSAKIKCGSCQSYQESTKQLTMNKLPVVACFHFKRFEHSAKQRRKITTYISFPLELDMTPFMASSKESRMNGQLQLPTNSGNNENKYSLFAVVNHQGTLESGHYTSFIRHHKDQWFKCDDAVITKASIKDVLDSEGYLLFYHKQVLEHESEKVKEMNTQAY
The target in series [4] is Ubiquitin carboxyl-terminal hydrolase 15 (Homo sapiens, UniProt Q9Y4E8). In words: Inhibition of human USP15 isoform 2 expressed in Escherichia coli assessed as cleavage of Ubiquitin-Rhodamine110-glycine to Ubiquitin and Rhodamine110-glycine using Ubiquitin-Rhodamine110-glycine as substrate by fluorescence based analysis.
Ubiquitin carboxyl-terminal hydrolase 15, sequence (Q9Y4E8 whole entry, canonical isoform): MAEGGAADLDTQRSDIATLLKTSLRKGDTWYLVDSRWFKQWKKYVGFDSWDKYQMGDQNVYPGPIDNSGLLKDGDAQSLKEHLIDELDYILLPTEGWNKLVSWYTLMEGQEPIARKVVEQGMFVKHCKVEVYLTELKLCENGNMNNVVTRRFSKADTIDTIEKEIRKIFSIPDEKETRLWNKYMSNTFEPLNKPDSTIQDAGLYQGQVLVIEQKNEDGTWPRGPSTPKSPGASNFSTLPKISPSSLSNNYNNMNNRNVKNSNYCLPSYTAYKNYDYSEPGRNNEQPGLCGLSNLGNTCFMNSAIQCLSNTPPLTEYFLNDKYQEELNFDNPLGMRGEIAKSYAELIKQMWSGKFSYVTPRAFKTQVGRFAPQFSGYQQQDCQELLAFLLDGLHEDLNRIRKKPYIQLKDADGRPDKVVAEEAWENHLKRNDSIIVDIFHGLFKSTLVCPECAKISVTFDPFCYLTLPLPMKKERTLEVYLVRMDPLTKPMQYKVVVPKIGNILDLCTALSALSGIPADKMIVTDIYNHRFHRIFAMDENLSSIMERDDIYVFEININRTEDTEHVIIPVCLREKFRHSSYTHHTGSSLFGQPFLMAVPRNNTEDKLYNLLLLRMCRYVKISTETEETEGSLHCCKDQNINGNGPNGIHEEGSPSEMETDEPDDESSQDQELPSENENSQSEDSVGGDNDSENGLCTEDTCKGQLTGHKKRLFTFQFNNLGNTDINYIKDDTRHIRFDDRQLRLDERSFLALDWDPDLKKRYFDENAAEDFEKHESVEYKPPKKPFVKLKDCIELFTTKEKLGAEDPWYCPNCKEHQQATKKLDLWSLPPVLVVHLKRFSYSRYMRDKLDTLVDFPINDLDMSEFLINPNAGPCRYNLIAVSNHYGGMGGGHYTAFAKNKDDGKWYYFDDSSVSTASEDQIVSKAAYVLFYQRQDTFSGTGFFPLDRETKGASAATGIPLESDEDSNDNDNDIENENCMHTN
The target in series [5] is Ubiquitin carboxyl-terminal hydrolase 25 (Homo sapiens, UniProt Q9UHP3). The series is described as follows: Inhibition of human GST-tagged USP25 expressed in Escherichia coli assessed as cleavage of Ubiquitin-Rhodamine110-glycine to Ubiquitin and Rhodamine110-glycine using Ubiquitin-Rhodamine110-glycine as substrate by fluorescence based analysis.
Ubiquitin carboxyl-terminal hydrolase 25, sequence (Q9UHP3 whole entry): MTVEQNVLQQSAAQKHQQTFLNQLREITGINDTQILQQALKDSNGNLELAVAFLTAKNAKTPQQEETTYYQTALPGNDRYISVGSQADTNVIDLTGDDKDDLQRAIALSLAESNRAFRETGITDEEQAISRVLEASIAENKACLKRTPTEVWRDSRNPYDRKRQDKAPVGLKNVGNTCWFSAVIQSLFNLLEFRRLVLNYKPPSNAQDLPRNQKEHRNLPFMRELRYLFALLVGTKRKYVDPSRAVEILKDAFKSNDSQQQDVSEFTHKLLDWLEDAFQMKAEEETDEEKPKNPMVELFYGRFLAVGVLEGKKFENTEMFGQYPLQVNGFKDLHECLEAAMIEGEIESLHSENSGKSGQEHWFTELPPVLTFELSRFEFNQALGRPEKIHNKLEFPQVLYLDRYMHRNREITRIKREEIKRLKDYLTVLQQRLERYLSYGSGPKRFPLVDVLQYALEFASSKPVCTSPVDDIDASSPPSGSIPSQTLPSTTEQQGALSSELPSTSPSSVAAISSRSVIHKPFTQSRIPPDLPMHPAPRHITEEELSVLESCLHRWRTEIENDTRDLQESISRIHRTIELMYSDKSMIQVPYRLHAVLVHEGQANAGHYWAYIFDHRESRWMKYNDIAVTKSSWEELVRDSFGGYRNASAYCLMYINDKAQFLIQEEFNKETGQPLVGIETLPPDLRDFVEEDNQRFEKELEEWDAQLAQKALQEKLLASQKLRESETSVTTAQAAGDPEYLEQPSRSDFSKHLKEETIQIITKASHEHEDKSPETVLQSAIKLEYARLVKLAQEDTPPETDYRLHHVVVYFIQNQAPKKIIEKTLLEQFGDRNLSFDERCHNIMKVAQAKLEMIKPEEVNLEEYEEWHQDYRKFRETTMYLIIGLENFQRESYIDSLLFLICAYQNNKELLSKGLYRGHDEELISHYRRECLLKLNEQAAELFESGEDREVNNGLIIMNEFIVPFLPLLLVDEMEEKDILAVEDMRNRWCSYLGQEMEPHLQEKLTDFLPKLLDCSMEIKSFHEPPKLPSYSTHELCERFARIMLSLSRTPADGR
In series [6] the target is Ubiquitin thioesterase OTU1 (Homo sapiens, UniProt Q5VVQ6). The series is described as follows: Inhibition of human GST-tagged OTU1 expressed in Escherichia coli assessed as cleavage of Ubiquitin-Rhodamine110-glycine to Ubiquitin and Rhodamine110-glycine using Ubiquitin-Rhodamine110-glycine as substrate by fluorescence based analysis.
Ubiquitin thioesterase OTU1, sequence (Q5VVQ6 whole entry): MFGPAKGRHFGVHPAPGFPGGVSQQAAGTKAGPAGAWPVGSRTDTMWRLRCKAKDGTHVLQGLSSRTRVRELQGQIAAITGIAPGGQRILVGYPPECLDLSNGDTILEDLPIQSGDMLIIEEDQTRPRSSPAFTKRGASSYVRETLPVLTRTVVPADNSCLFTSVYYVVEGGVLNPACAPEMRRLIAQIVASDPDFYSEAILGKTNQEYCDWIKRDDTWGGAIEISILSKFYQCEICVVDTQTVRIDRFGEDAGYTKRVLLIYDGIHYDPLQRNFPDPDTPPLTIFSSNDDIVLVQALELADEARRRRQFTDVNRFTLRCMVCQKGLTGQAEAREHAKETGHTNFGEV
For series [7], the target named is Ubiquitin thioesterase OTUB2 (Homo sapiens, UniProt Q96DC9). The series is described as follows: Inhibition of human GST-tagged OTUB2 expressed in Escherichia coli assessed as cleavage of Ubiquitin-Rhodamine110-glycine to Ubiquitin and Rhodamine110-glycine using Ubiquitin-Rhodamine110-glycine as substrate by fluorescence based analysis.
Series [8] has as its target OTU domain-containing protein 3 (Homo sapiens, UniProt Q5T2D3). The series is described as follows: Inhibition of human GST-tagged OTUD3 expressed in Escherichia coli assessed as cleavage of Ubiquitin-Rhodamine110-glycine to Ubiquitin and Rhodamine110-glycine using Ubiquitin-Rhodamine110-glycine as substrate by fluorescence based analysis.
The target of series [9] is Deubiquitinating protein VCPIP1 (Homo sapiens, UniProt Q96JH7). In words: Inhibition of human GST-tagged VCPIP CD (25 to 561 residues) expressed in Escherichia coli assessed as cleavage of Ubiquitin-Rhodamine110-glycine to Ubiquitin and Rhodamine110-glycine using Ubiquitin-Rhodamine110-glycine as substrate by fluorescence based analysis.
Deubiquitinating protein VCPIP1, sequence (Q96JH7 whole entry, the tested form may be a part): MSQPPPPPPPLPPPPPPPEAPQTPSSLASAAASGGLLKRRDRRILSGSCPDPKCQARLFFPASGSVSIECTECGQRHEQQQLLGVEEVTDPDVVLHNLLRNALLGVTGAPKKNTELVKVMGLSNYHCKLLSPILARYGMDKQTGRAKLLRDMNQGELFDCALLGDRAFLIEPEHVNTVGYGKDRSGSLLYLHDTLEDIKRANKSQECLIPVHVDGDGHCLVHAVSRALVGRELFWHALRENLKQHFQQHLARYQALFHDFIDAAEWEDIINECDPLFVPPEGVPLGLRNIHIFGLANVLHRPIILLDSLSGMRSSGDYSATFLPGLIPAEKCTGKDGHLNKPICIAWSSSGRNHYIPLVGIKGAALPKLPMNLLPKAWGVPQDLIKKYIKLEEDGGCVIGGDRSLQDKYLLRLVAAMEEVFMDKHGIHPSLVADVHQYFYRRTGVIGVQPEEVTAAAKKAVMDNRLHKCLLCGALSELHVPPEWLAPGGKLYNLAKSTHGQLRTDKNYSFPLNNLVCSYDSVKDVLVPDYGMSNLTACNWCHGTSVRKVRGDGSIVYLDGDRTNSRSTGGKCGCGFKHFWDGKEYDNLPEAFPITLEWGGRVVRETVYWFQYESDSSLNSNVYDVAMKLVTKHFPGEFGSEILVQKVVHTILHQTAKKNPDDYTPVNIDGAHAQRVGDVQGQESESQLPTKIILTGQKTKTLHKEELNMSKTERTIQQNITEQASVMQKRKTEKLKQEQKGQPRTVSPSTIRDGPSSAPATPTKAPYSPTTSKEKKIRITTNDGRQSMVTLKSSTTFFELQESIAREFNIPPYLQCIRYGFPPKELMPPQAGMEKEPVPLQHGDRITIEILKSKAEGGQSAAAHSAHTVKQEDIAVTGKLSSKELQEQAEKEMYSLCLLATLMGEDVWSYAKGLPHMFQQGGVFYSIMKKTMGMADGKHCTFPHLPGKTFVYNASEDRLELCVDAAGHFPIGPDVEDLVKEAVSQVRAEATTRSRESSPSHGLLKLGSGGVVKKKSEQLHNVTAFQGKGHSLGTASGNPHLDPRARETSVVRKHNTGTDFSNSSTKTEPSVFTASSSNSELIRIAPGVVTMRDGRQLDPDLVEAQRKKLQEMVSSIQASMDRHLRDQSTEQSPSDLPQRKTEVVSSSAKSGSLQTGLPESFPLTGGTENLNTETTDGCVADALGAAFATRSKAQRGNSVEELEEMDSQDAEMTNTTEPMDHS
The next series deals with Ataxin-3 (Homo sapiens, UniProt P54252). In words: Inhibition of human GST-tagged Ataxin-3 expressed in Escherichia coli assessed as cleavage of Ubiquitin-Rhodamine110-glycine to Ubiquitin and Rhodamine110-glycine using Ubiquitin-Rhodamine110-glycine as substrate by fluorescence based analysis.
Ataxin-3, sequence (P54252 whole entry): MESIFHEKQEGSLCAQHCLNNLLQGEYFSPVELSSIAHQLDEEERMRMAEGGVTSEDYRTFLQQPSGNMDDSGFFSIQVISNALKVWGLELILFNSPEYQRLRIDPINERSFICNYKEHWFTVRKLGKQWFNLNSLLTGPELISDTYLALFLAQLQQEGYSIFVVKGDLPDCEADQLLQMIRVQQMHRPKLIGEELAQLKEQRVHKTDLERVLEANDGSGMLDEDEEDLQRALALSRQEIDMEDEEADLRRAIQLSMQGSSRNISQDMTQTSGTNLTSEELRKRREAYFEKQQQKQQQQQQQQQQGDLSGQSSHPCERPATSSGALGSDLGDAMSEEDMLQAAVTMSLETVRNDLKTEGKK
For a further series, the target named is Josephin-1 (Homo sapiens, UniProt Q15040). The series is described as follows: Inhibition of human His6-tagged JOSD1 expressed in Escherichia coli assessed as cleavage of Ubiquitin-Rhodamine110-glycine to Ubiquitin and Rhodamine110-glycine using Ubiquitin-Rhodamine110-glycine as substrate by fluorescence based analysis.
Another series concerns the target Josephin-2 (Homo sapiens, UniProt Q8TAC2). In words: Inhibition of human 6His-tagged JOSD2 expressed in Escherichia coli assessed as cleavage of Ubiquitin-Rhodamine110-glycine to Ubiquitin and Rhodamine110-glycine using Ubiquitin-Rhodamine110-glycine as substrate by fluorescence based analysis.
In series [10] the target is Ubiquitin carboxyl-terminal hydrolase 5 (Homo sapiens, UniProt P45974). In words: Inhibition of human 6His-tagged USP5 expressed in Escherichia coli assessed as cleavage of Ubiquitin-Rhodamine110-glycine to Ubiquitin and Rhodamine110-glycine using Ubiquitin-Rhodamine110-glycine as substrate by fluorescence based analysis.

OTU domain-containing protein 3, sequence (Q5T2D3 whole entry, the tested form may be a part): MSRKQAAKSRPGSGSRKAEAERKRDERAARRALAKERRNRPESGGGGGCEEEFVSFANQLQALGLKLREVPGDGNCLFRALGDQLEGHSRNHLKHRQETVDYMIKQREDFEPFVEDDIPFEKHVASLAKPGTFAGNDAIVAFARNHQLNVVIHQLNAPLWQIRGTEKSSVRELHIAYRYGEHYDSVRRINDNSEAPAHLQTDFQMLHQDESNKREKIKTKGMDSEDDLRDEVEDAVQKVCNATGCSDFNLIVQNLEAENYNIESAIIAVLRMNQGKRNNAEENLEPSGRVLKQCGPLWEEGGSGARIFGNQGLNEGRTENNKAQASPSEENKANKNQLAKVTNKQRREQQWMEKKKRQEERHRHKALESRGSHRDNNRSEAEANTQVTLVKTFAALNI
Josephin-2, sequence (Q8TAC2 whole entry): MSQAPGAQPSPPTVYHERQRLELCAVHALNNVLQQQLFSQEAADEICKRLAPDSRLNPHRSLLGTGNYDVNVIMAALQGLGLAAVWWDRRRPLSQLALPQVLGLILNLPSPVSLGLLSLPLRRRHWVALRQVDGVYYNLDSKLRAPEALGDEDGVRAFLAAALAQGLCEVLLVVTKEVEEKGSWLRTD

As usually defined, the IC50 is the concentration at which inhibition is half-maximal. What is called clearance is the rate of elimination divided by the concentration. A low value points to inefficient removal. As to `Cc1cc(Cl)cc(-c2ccnc3cc(CN4C(=O)C5C(C4=O)C5(C)C)sc23)c1O[C@@H]1CCNC[C@@H]1C` (stereo partly drawn), the IC50 in series [1], in series [3], in series [4], in series [5], in series [6] and in series [7] was greater than 10 µM throughout. For the same molecule, the IC50 (in [8]; in series [9]; on Ataxin-3; at Josephin-1; on Josephin-2; in series [10]) was greater than 10 µM in each case. This molecule also gave a clearance in series [2] of 1.83 mL/min/kg.
